Experiments:
Beta-secretase 1 = Beta-secretase 1 (Homo sapiens, UniProt P56817); test: Inhibition of BACE1 (unknown origin) using Rh-EVNNLDAEFK fluorogenic peptide as substrate incubated for 3 hrs by FRET assay
[1] = biological target: Amyloid-beta precursor protein (Homo sapiens, UniProt P05067); test: Inhibition of self-induced aggregation amyloid beta (1 to 40) (unknown origin) incubated for 24 hrs by Thioflavin T based fluorometric assay
Chain of Amyloid-beta precursor protein (P05067 whole entry): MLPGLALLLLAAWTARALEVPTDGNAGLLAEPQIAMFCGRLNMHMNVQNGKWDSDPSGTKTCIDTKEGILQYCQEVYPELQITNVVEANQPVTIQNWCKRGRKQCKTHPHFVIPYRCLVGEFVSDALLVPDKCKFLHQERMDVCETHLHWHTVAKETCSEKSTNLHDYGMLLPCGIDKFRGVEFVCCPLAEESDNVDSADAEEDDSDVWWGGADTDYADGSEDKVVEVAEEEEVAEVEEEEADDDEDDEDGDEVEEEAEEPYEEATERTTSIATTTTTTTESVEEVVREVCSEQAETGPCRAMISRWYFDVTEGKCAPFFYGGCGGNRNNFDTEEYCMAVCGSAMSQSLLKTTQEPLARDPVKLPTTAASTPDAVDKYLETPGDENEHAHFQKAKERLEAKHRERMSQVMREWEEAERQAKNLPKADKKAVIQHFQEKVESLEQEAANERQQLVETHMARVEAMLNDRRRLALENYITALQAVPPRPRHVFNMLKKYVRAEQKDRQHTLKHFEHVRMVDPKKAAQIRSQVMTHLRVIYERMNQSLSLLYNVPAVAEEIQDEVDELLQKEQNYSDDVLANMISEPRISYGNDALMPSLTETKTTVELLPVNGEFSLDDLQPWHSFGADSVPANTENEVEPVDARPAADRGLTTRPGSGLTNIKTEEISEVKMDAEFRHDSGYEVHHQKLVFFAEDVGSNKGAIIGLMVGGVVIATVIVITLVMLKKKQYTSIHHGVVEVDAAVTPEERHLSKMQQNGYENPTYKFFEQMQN

Chain of Beta-secretase 1 (P56817 whole entry): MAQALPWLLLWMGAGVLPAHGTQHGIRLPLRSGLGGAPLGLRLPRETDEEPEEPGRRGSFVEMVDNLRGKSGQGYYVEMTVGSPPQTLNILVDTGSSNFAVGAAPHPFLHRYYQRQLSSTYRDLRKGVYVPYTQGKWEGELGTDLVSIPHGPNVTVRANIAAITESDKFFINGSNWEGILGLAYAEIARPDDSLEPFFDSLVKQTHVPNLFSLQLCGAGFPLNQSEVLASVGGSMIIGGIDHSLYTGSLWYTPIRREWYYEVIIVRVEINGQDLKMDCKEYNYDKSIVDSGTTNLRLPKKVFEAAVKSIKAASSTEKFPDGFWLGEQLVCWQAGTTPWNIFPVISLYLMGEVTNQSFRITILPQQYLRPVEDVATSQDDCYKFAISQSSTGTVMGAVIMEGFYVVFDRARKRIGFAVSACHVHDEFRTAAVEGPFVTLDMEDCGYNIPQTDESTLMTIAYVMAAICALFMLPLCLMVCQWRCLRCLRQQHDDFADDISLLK

| SMILES | IC50 (Beta-secretase 1) [µM] | IC50 [1] [µM] |
| --- | --- | --- |
| CC(C)=CCC/C(C)=C/CC/C(C)=C/Cc1c(O)cc(C)cc1O [GRIFOLIN] | 6.1 |  |
| C/C(=C\Cc1c(O)cc(C)c(C(=O)O)c1O)CC/C=C(\C)CC[C@H](O)C(C)(C)O | 34.4 | 53.3 |
| COC(=O)c1c(C)cc(O)c(C/C=C(\C)CCCC2=C/C(=C\C(C)(C)O)OC2=O)c1O | 10.9 | 40.7 |
| CC(C)=CCC/C(C)=C/CC/C(C)=C/Cc1c(O)cc(C)c(C(=O)O)c1O [GRIFOLIC ACID] | 1.4 |  |
| COC(=O)c1c(C)c(C/C=C(\C)CC/C=C(\C)CCC=C(C)C)c(OC)c(O)c1O | > 100 | 50.3 |
| COc1c(O)c(O)c(C(=O)O)c(C)c1C/C=C(\C)CC/C=C(\C)CCC=C(C)C | 1.6 | 6.6 |
| C/C(=C\Cc1c(O)cc(C)c(C(=O)O)c1O)CCCC1=C/C(=C\C(C)(C)O)OC1=O | 10.5 | 51.4 |
